Measured values taken from ChEMBL document CHEMBL1201862, “PubChem BioAssay data set” (2004).
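How tested: cells in 96-well plates exposed to compound for 48 hours at five concentrations. GI50 = concentration required for 50% inhibition of growth.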 Calls of active or inactive are those of the source. No stated cut-off is given here; in the data, active = GI50 up to about 1.1 µM and inactive = higher.

Legend:
Assay in all cases: DTP human tumour cell line panel, 48 h
BT-549 = system: BT-549
IGROV-1 = system: IGROV-1
HCT-15 = system: HCT-15
CAKI-1 = system: CAKI-1
Malme-3M = system: Malme-3M
DU-145 = system: DU-145
HCT-116 = system: HCT-116
M14 = system: M14
OVCAR-5 = system: OVCAR-5
NCI-H460 = system: NCI-H460
SK-MEL-5 = system: SK-MEL-5
T47D = system: T47D
EKVX = system: EKVX
COLO 205 = system: COLO 205
SNB-19 = system: SNB-19
ACHN = system: ACHN
SF-539 = system: SF-539
SF-295 = system: SF-295
Hs-578T = system: Hs-578T
MCF7 = system: MCF7
MDA-N = system: MDA-N
KM12 = system: KM12
SN12C = system: SN12C
U-251 = system: U-251
LOX IMVI = system: LOX IMVI
SK-MEL-28 = system: SK-MEL-28
MDA-MB-435 = system: MDA-MB-435
SW-620 = system: SW-620
SNB-75 = system: SNB-75
SK-MEL-2 = system: SK-MEL-2
NCI-H226 = system: NCI-H226
NCI/ADR-RES = system: NCI/ADR-RES
A549 = system: A549
RPMI-8226 = system: RPMI-8226
A498 = system: A498
HT-29 = system: HT-29
MOLT-4 = system: MOLT-4
HL-60 = system: HL-60
NCI-H23 = system: NCI-H23
OVCAR-4 = system: OVCAR-4
HCC 2998 = system: HCC 2998
HOP-92 = system: HOP-92
NCI-H522 = system: NCI-H522
OVCAR-3 = system: OVCAR-3
OVCAR-8 = system: OVCAR-8
PC-3 = system: PC-3
SF-268 = system: SF-268
MDA-MB-231 = system: MDA-MB-231
HOP-62 = system: HOP-62
SK-OV-3 = system: SK-OV-3
786-0 = system: 786-0
SR = system: SR
UACC-257 = system: UACC-257
UACC-62 = system: UACC-62
RXF 393 = system: RXF 393
K562 = system: K562
TK-10 = system: TK-10
UO-31 = system: UO-31
CCRF-CEM = system: CCRF-CEM

Measured: GI50

COc1ccc(C2=C(N)c3cc(OC)ccc3C2=O)cc1
inactive: BT-549 > 100 µM | IGROV-1 > 100 µM | CAKI-1 > 100 µM | Malme-3M > 100 µM | DU-145 > 100 µM | HCT-116 > 100 µM | M14 > 100 µM | OVCAR-5 > 100 µM | NCI-H460 > 100 µM | SK-MEL-5 > 100 µM | T47D 36.7 µM | EKVX > 100 µM | COLO 205 > 100 µM | SNB-19 24.5 µM | ACHN 49.9 µM | SF-539 > 100 µM | SF-295 > 100 µM | Hs-578T 4.25 µM | MCF7 > 100 µM | MDA-N > 100 µM | KM12 29.2 µM | SN12C > 100 µM | U-251 > 100 µM | LOX IMVI > 100 µM | SK-MEL-28 > 100 µM | MDA-MB-435 > 100 µM | SW-620 > 100 µM | SNB-75 16.1 µM | SK-MEL-2 > 100 µM | NCI-H226 > 100 µM | NCI/ADR-RES 88.7 µM | A549 > 100 µM | RPMI-8226 38.2 µM | A498 > 100 µM | HT-29 > 100 µM | MOLT-4 > 100 µM | HL-60 > 100 µM | NCI-H23 55.7 µM | OVCAR-4 > 100 µM | HCC 2998 > 100 µM | HOP-92 > 100 µM | NCI-H522 > 100 µM | OVCAR-3 > 100 µM | OVCAR-8 > 100 µM | PC-3 > 100 µM | SF-268 47.3 µM | MDA-MB-231 > 100 µM | HOP-62 > 100 µM | SK-OV-3 > 100 µM | 786-0 > 100 µM | SR 23.8 µM | UACC-257 > 100 µM | UACC-62 > 100 µM
> 100 µM: HCT-15

CN(CCCn1ccnc1[N+](=O)[O-])CCCn1ccnc1[N+](=O)[O-]
inactive: BT-549 > 100 µM | IGROV-1 > 100 µM | CAKI-1 > 100 µM | Malme-3M > 100 µM | DU-145 > 100 µM | HCT-116 > 100 µM | M14 > 100 µM | OVCAR-5 > 100 µM | NCI-H460 > 100 µM | SK-MEL-5 > 100 µM | T47D > 100 µM | EKVX > 100 µM | RXF 393 > 100 µM | K562 > 100 µM | COLO 205 > 100 µM | ACHN > 100 µM | SF-539 > 100 µM | SF-295 > 100 µM | Hs-578T > 100 µM | MCF7 > 100 µM | MDA-N > 100 µM | KM12 > 100 µM | SN12C > 100 µM | U-251 > 100 µM | LOX IMVI > 100 µM | SK-MEL-28 > 100 µM | MDA-MB-435 > 100 µM | SW-620 > 100 µM | SNB-75 > 100 µM | SK-MEL-2 > 100 µM | NCI-H226 > 100 µM | NCI/ADR-RES > 100 µM | A549 > 100 µM | RPMI-8226 > 100 µM | A498 > 100 µM | HT-29 > 100 µM | HL-60 > 100 µM | TK-10 > 100 µM | NCI-H23 > 100 µM | OVCAR-4 > 100 µM | NCI-H522 > 100 µM | UO-31 > 100 µM | OVCAR-3 > 100 µM | CCRF-CEM 8.41 µM | OVCAR-8 > 100 µM | PC-3 > 100 µM | SF-268 > 100 µM | MDA-MB-231 > 100 µM | HOP-62 > 100 µM | SK-OV-3 > 100 µM | 786-0 > 100 µM | SR > 100 µM | UACC-257 > 100 µM | UACC-62 > 100 µM
> 100 µM: HCT-15
active: MOLT-4 0.0861 µM

COc1cc2c(cc1OC)C1c3ccccc3CCCN1CC2 (configuration not stated)
inactive: BT-549 > 100 µM | IGROV-1 > 100 µM | CAKI-1 > 100 µM | Malme-3M > 100 µM | DU-145 > 100 µM | HCT-116 36.4 µM | M14 > 100 µM | OVCAR-5 > 100 µM | NCI-H460 > 10 µM | SK-MEL-5 > 100 µM | T47D > 100 µM | EKVX > 100 µM | K562 > 100 µM | COLO 205 > 100 µM | SNB-19 > 100 µM | ACHN > 100 µM | SF-539 > 100 µM | SF-295 47.6 µM | Hs-578T > 100 µM | MCF7 > 100 µM | MDA-N > 100 µM | KM12 > 100 µM | SN12C > 100 µM | U-251 > 100 µM | LOX IMVI > 100 µM | SK-MEL-28 > 100 µM | MDA-MB-435 > 100 µM | SW-620 > 100 µM | SNB-75 > 100 µM | SK-MEL-2 > 100 µM | NCI-H226 > 100 µM | NCI/ADR-RES > 100 µM | A549 > 100 µM | RPMI-8226 46.7 µM | A498 > 100 µM | HT-29 51.2 µM | MOLT-4 > 100 µM | HL-60 41.3 µM | TK-10 > 100 µM | NCI-H23 > 100 µM | OVCAR-4 > 100 µM | HCC 2998 > 100 µM | HOP-92 33 µM | NCI-H522 > 100 µM | UO-31 8.41 µM | OVCAR-3 > 100 µM | CCRF-CEM > 100 µM | OVCAR-8 > 100 µM | PC-3 > 100 µM | SF-268 > 100 µM | MDA-MB-231 > 100 µM | HOP-62 > 100 µM | SK-OV-3 > 100 µM | 786-0 > 100 µM | SR > 100 µM | UACC-257 > 100 µM | UACC-62 > 100 µM
> 100 µM: HCT-15

CCCCCCCCCCCCCCCCOC[C@H](COC(c1ccccc1)(c1ccccc1)c1ccccc1)O[PH](=S)OC (some centres not stated)
inactive: BT-549 > 100 µM | IGROV-1 > 100 µM | CAKI-1 > 100 µM | DU-145 > 100 µM | HCT-116 > 100 µM | M14 > 100 µM | OVCAR-5 > 100 µM | NCI-H460 > 100 µM | SK-MEL-5 > 100 µM | T47D > 100 µM | EKVX > 100 µM | RXF 393 > 100 µM | K562 > 100 µM | COLO 205 > 100 µM | SNB-19 > 100 µM | ACHN > 100 µM | SF-539 > 100 µM | SF-295 > 100 µM | Hs-578T > 100 µM | MCF7 > 100 µM | MDA-N > 100 µM | KM12 > 100 µM | SN12C > 100 µM | U-251 > 100 µM | LOX IMVI > 100 µM | MDA-MB-435 > 100 µM | SW-620 > 100 µM | SNB-75 > 100 µM | SK-MEL-2 > 100 µM | NCI-H226 > 100 µM | NCI/ADR-RES > 100 µM | A549 > 100 µM | RPMI-8226 > 100 µM | A498 > 100 µM | HT-29 > 100 µM | MOLT-4 > 100 µM | HL-60 > 100 µM | TK-10 > 100 µM | NCI-H23 > 100 µM | HOP-92 > 100 µM | NCI-H522 > 100 µM | UO-31 > 100 µM | OVCAR-3 > 100 µM | CCRF-CEM > 100 µM | OVCAR-8 > 100 µM | PC-3 > 100 µM | SF-268 > 100 µM | MDA-MB-231 > 100 µM | SK-OV-3 > 100 µM | 786-0 > 100 µM | SR > 100 µM | UACC-257 > 100 µM | UACC-62 > 100 µM
> 100 µM: HCT-15
